The subject of assay [1] is CBA mouse recipients of C57B1/6 donor hearts. In words: heart-allograft survival in mice (abdominal heterotopic heart transplantation). In kind it is in vivo. The note with it: for mean graft survival time / MSTSD: CBA recipients of C57B1/6 donor hearts, peptide intraperitoneal daily from day of transplantation until day nine. How it is done:
Abdominal heterotopic heart transplantation was carried out as described previously in J. Thorac. Cardiovasc. Surg., vol. 7, page 225 (1969).
CBA mouse recipients of C57B1/6 donor hearts were treated daily with different doses of peptide following organ transplantation. Peptides were dissolved in DMSO and diluted in PBS (final DMSO concentration 10%) before intraperitoneal administration. Animals were treated from the day of transplantation until day nine. Graft survival was monitored daily by direct palpation, and rejection was defined as termination of palpable cardiac contractility. The statistical significance of prolongation of heart allograft survival was calculated using the Mann-Whitney test.

Assay [2] has the same test system. To be noted: cited from earlier work.

“And” between values parts separate entries of the source, which are not always exact repeats. Identical values can stand only once. Marks after values point to notes of the source that are not given here.

For the substance “NLRIALRYYW [peptide derived from peptide 2702.75-84]”, in assay [1] (dose not printed in table), the mean graft survival time was 11.6 days. YRLAIRLNER: the MSTSD in assay [1] (dose not printed in table) was 12.1 2.8 (2); in assay [1] (dose not printed in table, listed as yrlairlner), 13.2 2.7 (2). As for RVNLRTLRRY, in assay [1] (dose not printed in table), the MSTSD was 8.0 0.5 (14).

On to RVDLRTLLRY, for which the MSTSD in assay [1] (dose not printed in table) was 7.0 0.5 (7). As for RVNLRTALRY, the mean graft survival time in assay [1] (dose not printed in table) amounted to 8.5 days.

Regarding “ENLRIALR [shortened peptide derived from 2702.75-84]”, in assay [1] (dose not printed in table), the MSTSD is reported as 8.5 0.7 (12).

Take renlpialry: the MSTSD in assay [1] (dose not printed in table) was 9.5 2.4 (13). On the same count and under the same terms, the result for REDLRTLLRY reads 7.7 1.2 (11); that for RMNLQTLRGY, 7.5 0.7 (15). Turning to “RENLRIALRY [peptide derived from HLA-B2702, amino acids 75 to 84, reference compound]”, the heart-allograft survival in assay [2] (80 mg/kg/day for 10 days following transplantation of B6 donor hearts into CBA recipients, n=8, p<0.01 vs untreated) is 11.4 days. In assay [2] (Transplantation, vol. 59, page 455 (1995)), the “heart-allograft survival in mice” value is on record as “prolongs heart-allograft survival in mice”. In assay [2] (doses lower than 80 mg/kg/day), the “effect on graft survival at lower doses” value is “No effect on graft survival was observed”. Moreover, the “allograft survival, reference peptide” value in assay [1] (80 mg/kg/day) is “prolonged allograft survival”. Besides, the MSTSD in assay [1] (dose not printed in table) was 11.4 2.6 (1)* and 11.4 4.1 (1). Besides, the “effect at lower doses, reference peptide” value in assay [1] (doses lower than 80 mg/kg/day) was “no effect was observed”. In addition, the “long-term graft survival” value in assay [1] (reference peptide administration) was “no long-term graft survival was induced”. Turning to YRLAIRLNVR, the mean graft survival time is 12.5 days in assay [1] (dose not printed in table) and 12.2 days in assay [1] (dose not printed in table, listed as yrlairlnvr).

For the substance RESLRLLRGY, the MSTSD in assay [1] (dose not printed in table) was 7.5 0.7 (10). “RVNLRIALRY [peptide derived from peptide 2702.75-84]” showed a mean graft survival time in assay [1] (dose not given) of 13.1 days. Also, the MSTSD in assay [1] (dose not printed in table) is 11.5 0.5 (3).

Take RVSLRNLLGY: the MSTSD in assay [1] (dose not printed in table) was 8.0 0.5 (9). Consider RVDKRTLLGY, for which the MSTSD in assay [1] (dose not printed in table) is 7.8 1.0 (8).

Source of the values: patent US7024311B1, “COMPUTER-AIDED METHOD FOR THE PROVISION, IDENTIFICATION AND DESCRIPTION OF MOLECULES CAPABLE OF EXHIBITING A DESIRED BEHAVIOR, MORE PARTICULARLY IN THE PHARMACEUTICAL SECTOR, AND MOLECULES OBTAINED BY SAID METHOD” (Synt:EM S.A., priority 1997, dated 2006).
